Assay: xn = mol fraction of the nth substance listed
Conditions: 100 kPa

C[N+](C)(C)CCO.O=S(=O)([N-]S(=O)(=O)C(F)(F)F)C(F)(F)F + OCCO
Conditions | electrical conductivity, x1 = 0.14 [S/m] | electrical conductivity, x1 = 0.2 [S/m] | electrical conductivity, x1 = 0.333 [S/m] | viscosity, x1 = 0.14 [mPa·s] | viscosity, x1 = 0.2 [mPa·s] | viscosity, x1 = 0.333 [mPa·s]
298.1 K | 0.313 | 0.402 | 0.36 | 22.27 | 28.99 | 30.56
303 K | – | 0.494 | 0.442 | – | 23.44 | 24.82
308.1 K | 0.456 | 0.6 | 0.532 | 14.46 | 18.97 | 20.46
313 K | 0.54 | 0.715 | 0.635 | 12.12 | 15.74 | 17.15
318.1 K | 0.631 | 0.839 | 0.745 | 10.36 | 13.28 | 14.48
323 K | – | 0.975 | 0.866 | – | 11.32 | 12.28
328.1 K | 0.838 | 1.12 | 1 | 7.73 | 9.77 | 10.7

Reference: a compilation of properties of binary mixtures (doi:10.1021/acs.jpcb.0c03296)
